Data: patent US9962341B2, “Active pharmaceutical ingredient (API) comprising cannabinoids for use in the treatment of cancer” (GW Pharma Limited, priority 2014, dated 2018)
Where two headings read alike, the source gives them in different places.

Test system: BT474
Test: Cell viability (CellTiter-Blue, 72 h), phytocannabinoids alone and in combination, BT474 breast cancer cells
Type: cell-based
Conditions: for IC50: Homo sapiens; for effect (but only 50% effect): extent of effect reached
Procedure: The cell lines tested in this Example were as follows. Breast cancer: MDA-MB-231; SK-BR3; and BT474. Liver cancer: HepG2.
The phytocannabinoids were tested alone and in various ratioed combinations in media containing final concentrations of 10% and 1% foetal bovine serum at 72 h for the breast and prostate cancer lines and 1% foetal bovine serum for the liver cancer line HepG2.
Each tumour cell line was maintained in vitro in RPMI 1640+10% heat inactivated FBS and 2 mM L-glutamine (growth media) at 37° C. in 5% CO2 and humidified conditions. The cells were harvested, washed, re-suspended into growth medium and counted. The cells were re-suspended into assay media (RPMI 1640+5% heat inactivated FBS+ and 2 mM L-glutamine) at 8×104-2×10^5 cells/ml (dependent upon cell type) and plated into the middle 240 wells of 384 well tissue culture plates (Corning CellBind, black-wall plates) 12.5 μl/well aliquots; 62.5 μl of growth media was aliquoted into the outer wells. There were 4 plates for each cell line. The plates were incubated overnight at 37° C., in 5% humidified CO2.
The phytocannabinoid test compounds were prepared in 100% DMSO vehicle at a stock concentration of 10 mM.
Starting with the 10 mM stock, the compounds were diluted to 125 μM in FBS-free growth media.
These were diluted in FBS-free growth media to 125 μM before serial dilution.
5 volumes of CBD 10 mM stock was added to 1 volume of the other agent (also at 10 mM) and 4 volumes of DMSO. This made a final concentration of 5 mM:1 mM. This was then diluted in FBS-free growth media so the top concentration of CBD would be 125 μM (before serial dilution). Each compound and compound combination stock was serially diluted in FBS-free growth media (containing 1.25% v/v DMSO) from 125 μM to 41.7, 13.89, 4.63, 1.54, 0.514, 0.171, 0.057 and 0.019 μM (1.25× final assay concentrations). Vehicle was prepared at equivalent dilutions in assay media. The top final concentration of compound in the assay was always 100 μM so CBD5:1CBG was 100 μM CBD and 20 μM CBG.
Taxotere SOC was prepared at a stock concentration of 1 mM in 100% DMSO. Taxotere was serially diluted from the stock solution into FBS-free growth media to 12.5 μM, then serially diluted in FBS-free growth media containing 1.25% DMSO to 4.17, 1.39, 0.46, 0.154, 0.051, 0.017, 0.006, 0.002 μM (1.25× final assay concentrations).
This was then serially diluted in FBS-free growth media to 0.417, 0.139, 0.046, 0.0154, 0.0051, 0.0017, 0.0006, 0.0002 μM (1.25× final assay concentrations). This was plated as a positive control for the SKBR3 & BT474 cell lines. 50 μl per well of compound/vehicle dilutions was added to the plates in replicates of 6. Where applicable total volume in the well was made up to 62.5 μl with assay media.
The plates were incubated for 72 h at 37° C. in 5% humidified CO2. To develop the plates, at 72 h, 10 μl of CellTiter-Blue™ reagent was added to each test/blank well. The plates were incubated at 37° C., 5% humidified CO2. Fluorescence was measured using a Flex II Station plate reader (570 nm excitation wavelength, 600 nm emission wavelength, 590 nm cut-off) after 3 h.
The experimental conditions were the same as the experiment above, with the same compound dilutions and volumes for plating but using growth media containing 10% FBS rather than FBS-free media.
The raw data values expressed in relative fluorescent units were normalised to the vehicle for each individual plate and any reduction in fluorescence indicated a decrease in viability.
The data were analysed in GraphPad PRISM using a non-linear sigmoidal plot with variable slope (asymmetric five point linear regression) and where possible an IC50 value for each single compound and combination was generated.
For the calculation, raw data values expressed in relative fluorescent units were normalised to the vehicle for each individual plate (set as 0%) and the reduction in fluorescence calculated as an increase in inhibition of viability.

[1] = BT-474, 72 h, BT474, 1% FBS, 72 h, read-out: IC50 values
[2] = BT-474, 72 h, BT474, 10% FBS, 72 h, read-out: IC50 values
[3] = BT-474, BT474, 1% FBS, Calcusyn median-effect analysis, read-out: Dm (median effect dose)

Row | Compound | IC50 [1] | IC50 [2] | IC50 [3] | effect (but only 50% effect) (BT474, 1% FBS) | effect (but only 50% effect) (BT474, 10% FBS)
1 | CCCc1cc(O)c2c(c1)OC(C)(C)[C@@H]1CCC(C)=C[C@@H]21 [THCV, Tetrahydrocannabivarin] | 13.3 µM | 31 µM | 20.3 µM |  | 
2 | C=C(C)[C@@H]1CCC(C)=C[C@H]1c1c(O)cc(CCCCC)c(C(=O)O)c1O [CBDA, Cannabidiolic acid] | 21.8 µM | > 100 µM | 43.3 µM |  | 
3 | CCCCCc1cc(O)c(C/C=C(\C)CCC=C(C)C)c(O)c1C(=O)O [CBGA, Cannabigerolic acid] | 24.8 µM | ~100 µM | 27.9 µM |  | 
4 | C=C(C)[C@@H]1CCC(C)=C[C@H]1c1c(O)cc(CCCCC)cc1O [CBD, Cannabidiol] | 8 µM | 28 µM | 16.9 µM |  | 
5 | CCCCCc1cc(O)c(C/C=C(\C)CCC=C(C)C)c(O)c1 [CBG, Cannabigerol] | 7.9 µM | 37 µM | 14.8 µM |  | 
6 | CC(=O)O[C@@]12CO[C@@H]1C[C@H](O)[C@@]1(C)C(=O)[C@H](O)C3=C(C)[C@@H](OC(=O)[C@H](O)[C@@H](NC(=O)OC(C)(C)C)c4ccccc4)C[C@@](O)([C@@H](OC(=O)c4ccccc4)[C@H]21)C3(C)C [Taxotere, Docetaxel, reference compound] | < 0.001 µM | < 0.001 µM |  | only 50% | 50% effect)
